Common to all, as to assay type: biochemical
One experiment concerns the target T1, recombinant human VAP-1 (Homo sapiens, UniProt Q16853).
T1 construct: purchased R&D systems
T1 sequence (Q16853 1-763): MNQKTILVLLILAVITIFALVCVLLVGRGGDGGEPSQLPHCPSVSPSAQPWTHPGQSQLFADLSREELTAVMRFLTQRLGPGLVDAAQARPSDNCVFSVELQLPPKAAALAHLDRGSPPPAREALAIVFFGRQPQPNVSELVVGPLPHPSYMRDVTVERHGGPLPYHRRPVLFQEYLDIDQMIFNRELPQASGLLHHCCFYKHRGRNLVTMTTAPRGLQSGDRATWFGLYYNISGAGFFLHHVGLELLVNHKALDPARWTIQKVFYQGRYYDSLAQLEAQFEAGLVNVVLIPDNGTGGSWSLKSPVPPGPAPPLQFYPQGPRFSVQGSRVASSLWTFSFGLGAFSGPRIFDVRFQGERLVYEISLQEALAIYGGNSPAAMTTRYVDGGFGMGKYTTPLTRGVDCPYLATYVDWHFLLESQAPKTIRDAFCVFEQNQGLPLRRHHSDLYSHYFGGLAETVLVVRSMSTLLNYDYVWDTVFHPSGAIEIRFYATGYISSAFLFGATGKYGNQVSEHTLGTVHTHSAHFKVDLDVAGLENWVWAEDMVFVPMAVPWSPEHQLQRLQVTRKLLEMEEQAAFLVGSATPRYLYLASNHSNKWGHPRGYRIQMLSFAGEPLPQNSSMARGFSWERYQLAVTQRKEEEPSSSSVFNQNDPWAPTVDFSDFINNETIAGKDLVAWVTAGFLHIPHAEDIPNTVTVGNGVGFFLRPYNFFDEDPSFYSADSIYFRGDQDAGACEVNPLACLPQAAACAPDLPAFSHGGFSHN
Nature of the experiment: Activity on recombinant human VAP-1, Amplex Red HRP-coupled hydrogen peroxide assay, benzylamine substrate. The conditions noted are these: recombinant human VAP-1, benzylamine substrate; read-out: Inhibitory Activity (IC50, nM) human VAP-1. The gist of the method:
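Enzyme in 50 mM sodium phosphate (pH 7.4) is exposed to test compound for 30 min at 37 °C. Benzylamine (1 mM) with HRP and Amplex Red then starts the reaction, and the fluorescence rate, relative to a DMSO-only control, gives IC50.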

For experiment [1], the target named is T2, recombinant human MAO-A (monoamine oxidase-A) (Homo sapiens, UniProt P21397).
T2 construct: purchased Sigma-Aldrich
T2 sequence (P21397 1-527): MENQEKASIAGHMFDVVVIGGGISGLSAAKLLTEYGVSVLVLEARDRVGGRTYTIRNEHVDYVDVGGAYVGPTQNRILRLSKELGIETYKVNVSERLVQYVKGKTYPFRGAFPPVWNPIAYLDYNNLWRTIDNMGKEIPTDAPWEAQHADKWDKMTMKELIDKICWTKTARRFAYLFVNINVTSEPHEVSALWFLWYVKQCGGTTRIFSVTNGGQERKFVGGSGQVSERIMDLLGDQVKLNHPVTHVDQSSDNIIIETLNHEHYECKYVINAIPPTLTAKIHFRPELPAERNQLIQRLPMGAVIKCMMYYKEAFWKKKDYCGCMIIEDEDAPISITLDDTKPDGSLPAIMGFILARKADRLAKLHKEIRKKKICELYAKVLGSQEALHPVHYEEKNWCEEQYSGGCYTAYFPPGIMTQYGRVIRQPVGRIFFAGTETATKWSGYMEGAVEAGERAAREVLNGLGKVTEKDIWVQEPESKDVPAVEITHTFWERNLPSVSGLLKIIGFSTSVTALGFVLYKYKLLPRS
Nature of the experiment: Activity on recombinant human MAO-A, Amplex Red method, 0.5 mM tyramine substrate. The conditions noted are these: 0.5 mM tyramine substrate, read-out: Inhibitory Activity (IC50, nM) MAO-A. Summed up: (§1)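 Enzyme in pH 7.4 phosphate buffer; 30 min, 37° C with compound (DMSO <1%); start with 200 uM Amplex Red + 1 U/mL HRP + tyramine 0.5 mM (MAO-A) or benzylamine 1 mM (MAO-B); kinetic read ex 544/em 590, 1-2 h; % rate decrease vs DMSO control → IC50, 4-parameter fit.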

The target of experiment [2] is T3, recombinant human MAO-B (monoamine oxidase-B) (Homo sapiens, UniProt P27338).
T3 construct: purchased Sigma-Aldrich
T3 sequence (P27338 1-520): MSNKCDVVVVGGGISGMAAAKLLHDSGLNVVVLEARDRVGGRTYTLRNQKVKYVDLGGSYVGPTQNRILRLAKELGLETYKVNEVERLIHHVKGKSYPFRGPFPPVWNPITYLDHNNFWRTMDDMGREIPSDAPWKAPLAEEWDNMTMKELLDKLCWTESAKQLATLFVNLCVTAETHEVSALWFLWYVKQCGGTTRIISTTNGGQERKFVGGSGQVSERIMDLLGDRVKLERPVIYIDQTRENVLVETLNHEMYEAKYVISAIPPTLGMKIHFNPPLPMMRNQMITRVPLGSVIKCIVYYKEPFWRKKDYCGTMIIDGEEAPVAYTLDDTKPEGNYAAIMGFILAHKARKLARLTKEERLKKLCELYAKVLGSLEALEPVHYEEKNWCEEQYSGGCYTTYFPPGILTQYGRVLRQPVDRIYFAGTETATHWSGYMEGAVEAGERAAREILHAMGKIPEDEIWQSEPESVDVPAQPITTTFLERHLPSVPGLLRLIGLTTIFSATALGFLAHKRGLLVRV
Nature of the experiment: Activity on recombinant human MAO-B, Amplex Red method, 1 mM benzylamine substrate. The conditions noted are these: 1 mM benzylamine substrate, read-out: Inhibitory Activity (IC50, nM) MAO-B. Summed up:
as §1

For experiment [3], the target named is T4, recombinant human DAO (diamine oxidase) (Homo sapiens, UniProt P19801).
T4 construct: purchased R&D systems
T4 sequence (P19801 20-751): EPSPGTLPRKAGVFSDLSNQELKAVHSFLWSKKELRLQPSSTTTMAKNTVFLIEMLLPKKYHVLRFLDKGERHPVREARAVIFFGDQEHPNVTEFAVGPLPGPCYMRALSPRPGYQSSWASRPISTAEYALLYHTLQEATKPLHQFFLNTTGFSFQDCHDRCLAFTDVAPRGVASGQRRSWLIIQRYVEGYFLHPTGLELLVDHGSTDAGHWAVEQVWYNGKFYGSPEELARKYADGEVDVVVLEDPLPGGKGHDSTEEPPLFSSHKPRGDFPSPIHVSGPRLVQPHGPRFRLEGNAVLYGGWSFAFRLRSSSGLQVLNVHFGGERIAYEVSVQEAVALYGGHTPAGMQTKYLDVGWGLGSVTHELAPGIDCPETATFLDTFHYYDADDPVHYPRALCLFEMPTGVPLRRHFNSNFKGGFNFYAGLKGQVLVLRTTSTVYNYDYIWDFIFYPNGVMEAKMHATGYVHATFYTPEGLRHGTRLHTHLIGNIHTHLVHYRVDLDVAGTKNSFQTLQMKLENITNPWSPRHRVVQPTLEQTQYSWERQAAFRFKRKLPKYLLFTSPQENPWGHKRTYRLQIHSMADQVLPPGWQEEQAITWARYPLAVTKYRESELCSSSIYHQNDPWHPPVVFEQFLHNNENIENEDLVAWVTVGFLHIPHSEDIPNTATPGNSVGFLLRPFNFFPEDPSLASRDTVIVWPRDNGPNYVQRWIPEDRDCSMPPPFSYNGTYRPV
The experiment is described as follows: Activity on recombinant human DAO, Amplex Red method, 1 mM putrescine substrate. The conditions noted are these: recombinant human DAO, 1 mM putrescine substrate; read-out: Inhibitory Activity (IC50, nM) DAO. The gist of the method: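 Inhibition of recombinant human DAO (diamine oxidase, R&D systems) was assessed with the Amplex Red Hydrogen Peroxide Assay Kit. Hydrogen peroxide produced from 1 mM putrescine was detected through an HRP-coupled reaction that converts Amplex Red into fluorescent resorufin, read at 544 nm excitation and 590 nm emission. IC50 values came from four-parameter logistic fits in GraphPad Prism.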

Structures are written as SMILES. Counter-ions that a name gives are not always drawn. Where only a bound is given, the exact number is not on record here.

One may read the IC50 as the concentration at which inhibition is half-maximal. In the case of `NC/C(=C\F)Cn1ncn(-c2cccc(C#Cc3cnc4c(c3)OCC(=O)N4)n2)c1=O` [Example 255, 7-[2-[6-[1-[(E)-2-(aminomethyl)-3-fluoro-allyl]-5-oxo-1,2,4-triazol-4-yl]-2-pyridyl]ethynyl]-4H-pyrido[3,2-b][1,4]oxazin-3-one], the IC50 was 0.2 nM on recombinant human VAP-1, above 100000 nM in experiment [1], 6100 nM in experiment [2] and 20 nM in experiment [3].
The like results for `Cn1cncc1C#Cc1cccc(-n2cnn(C/C(=C/F)CN)c2=O)n1` [Example 256, 2-[(E)-2-(aminomethyl)-3-fluoro-allyl]-4-[6-[2-(3-methylimidazol-4-yl)ethynyl]-2-pyridyl]-1,2,4-triazol-3-one] were, in that order, 0.3 nM, above 100000 nM, above 10000 nM and 27 nM.
The like results for `Cn1cc(C#Cc2cccc(-n3cnn(C/C(=C/F)CN)c3=O)n2)cn1` [Example 257, 2-[(2E)-2-(aminomethyl)-3-fluoroprop-2-en-1-yl]-4-{6-[(1-methyl-1H-pyrazol-4-yl)ethynyl]pyridin-2-yl}-2,4-dihydro-3H-1,2,4-triazol-3-one hydrochloride] were, in that order, 0.4 nM, above 100000 nM, 5700 nM and 90 nM.
For the compound `NC/C(=C\F)Cn1ncn(-c2cccc(C#Cc3cnc4c(c3)NC(=O)CO4)n2)c1=O` [Example 258, 7-[2-[6-[1-[(E)-2-(aminomethyl)-3-fluoro-allyl]-5-oxo-1,2,4-triazol-4-yl]-2-pyridyl]ethynyl]-1H-pyrido[2,3-b][1,4]oxazin-2-one], the IC50 on recombinant human VAP-1 is 0.2 nM; in experiment [1] it was above 100000 nM; in experiment [2], 59000 nM; in experiment [3], 1.3 nM.
For `Cc1cc(-c2ccc(N3CCNCC3)nc2)cnc1-n1cnn(C/C(=C/F)CN)c1=O` [Example 259, 2-[(E)-2-(aminomethyl)-3-fluoro-allyl]-4-[3-methyl-5-(6-piperazin-1-yl-3-pyridyl)-2-pyridyl]-1,2,4-triazol-3-one] the same measures were 1.4 nM, above 100000 nM, above 100000 nM and 29000 nM.

Values taken from patent US11492335B2, “Aryl or heteroaryl triazolone derivatives or salts thereof, or pharmaceutical compositions comprising the same” (YUHAN CORPORATION, priority 2018, dated 2022).
